In one assay the test system is G401 cells. In words: Cancer cell proliferation inhibition (Cell Counting Kit-8), rhabdoid tumor cell line. In kind it is cell-based. As to conditions: 1000 nM, cultured seven to 11 days; for % inhibition rate G401: 1 µM; for inhibition at 1 µM: Homo sapiens, G-401, 264 h, read-out: % inhibition rate G401. Put shortly:
(§1)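 Cells grown in RPMI1640, McCoy's 5a, L-15 or DMEM with 10% FBS, seeded at 100 to 1,000 cells/well and treated with test substance at 1000 nM for 7 to 11 days. Viability read by CCK-8; % inhibition = {1−(test/control)} × 100.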
On the technique in general: Tetrazolium dyes change colour on reduction, which living cells bring about.

Another assay concerns Lovo cells. In words: Cancer cell proliferation inhibition (Cell Counting Kit-8), colorectal cancer cell line. In kind it is cell-based. As to conditions: 1000 nM, cultured seven to 11 days; for inhibition at 1 µM: Homo sapiens, LoVo, 264 h, read-out: % inhibition rate LoVo. Put shortly: (§2)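 One dose only (1000 nM), 7–11 d exposure, 10% FBS in line-appropriate medium; CCK-8 endpoint, inhibition expressed relative to control.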

A further assay has as its target EZH1 (Homo sapiens, UniProt Q92800). In words: AlphaLISA enzyme activity inhibition, EZH1. As to conditions: for inhibition at 0.005 µM: 5nM test substance; for inhibition at 0.01 µM: 10nM test substance. In kind it is biochemical. Put shortly: (§3)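 EZH1 or EZH2 was mixed with compound at 5 nM or 10 nM final in 20 mM Tris pH 8.0, 0.1% BSA, 0.5 mM DTT, then histone H3 peptide and SAM were added. After 2 h reaction, AlphaLISA acceptor and donor beads detected methylation; inhibition rate was calculated against DMSO control.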
(In general: Alpha assays give light when donor and acceptor beads are brought close together.)

The test system of the next assay is SW-13 cells. In words: Cancer cell proliferation inhibition (Cell Counting Kit-8), adrenal cancer cell line. The note with it: Homo sapiens, SW13, 264 h, 1000 nM, cultured seven to 11 days; read-out: % inhibition rate SW-13. In kind it is cell-based. Put shortly:
as §2

In the next assay the target is EZH2 (Homo sapiens, UniProt Q15910). In words: AlphaLISA enzyme activity inhibition, EZH2. As to conditions: for inhibition at 0.005 µM: 5nM test substance; for inhibition at 0.01 µM: 10nM test substance. The format is biochemical. The procedure, abridged: as §3
The subject of the next assay is MKN-45 cells. In words: Cancer cell proliferation inhibition (Cell Counting Kit-8), gastric cancer cell line. The format is cell-based. The note with it: Homo sapiens, MKN-45, 264 h, 1000 nM, cultured seven to 11 days; read-out: % inhibition rate MKN -45. Put shortly: as §1
The test system of the next assay is MIA-PaCa-2 cells. In words: Cancer cell proliferation inhibition (Cell Counting Kit-8), pancreatic cancer cell line. As to conditions: Homo sapiens, MIA PaCa-2, 264 h, 1000 nM, cultured seven to 11 days; read-out: % inhibition rate MIA-Paca2. In kind it is cell-based. The procedure, abridged:
as §2

A further assay relates to NCI-H1299 cells. In words: Cancer cell proliferation inhibition (Cell Counting Kit-8), lung cancer cell line. The format is cell-based. The note with it: Homo sapiens, NCI-H1299, 264 h, 1000 nM, cultured seven to 11 days; read-out: % inhibition rate NCI-H129 9. Put shortly: as §2

Counter-ions that a name gives are not always drawn. A value given as a limit tells only on which side of the number the result lay.

We go through eight compounds from patent EP4740948A1 (Dong Wha Pharm. Co., Ltd., priority 2023, dated 2025).

Sequence of EZH2 (Q15910 whole entry, species assumed): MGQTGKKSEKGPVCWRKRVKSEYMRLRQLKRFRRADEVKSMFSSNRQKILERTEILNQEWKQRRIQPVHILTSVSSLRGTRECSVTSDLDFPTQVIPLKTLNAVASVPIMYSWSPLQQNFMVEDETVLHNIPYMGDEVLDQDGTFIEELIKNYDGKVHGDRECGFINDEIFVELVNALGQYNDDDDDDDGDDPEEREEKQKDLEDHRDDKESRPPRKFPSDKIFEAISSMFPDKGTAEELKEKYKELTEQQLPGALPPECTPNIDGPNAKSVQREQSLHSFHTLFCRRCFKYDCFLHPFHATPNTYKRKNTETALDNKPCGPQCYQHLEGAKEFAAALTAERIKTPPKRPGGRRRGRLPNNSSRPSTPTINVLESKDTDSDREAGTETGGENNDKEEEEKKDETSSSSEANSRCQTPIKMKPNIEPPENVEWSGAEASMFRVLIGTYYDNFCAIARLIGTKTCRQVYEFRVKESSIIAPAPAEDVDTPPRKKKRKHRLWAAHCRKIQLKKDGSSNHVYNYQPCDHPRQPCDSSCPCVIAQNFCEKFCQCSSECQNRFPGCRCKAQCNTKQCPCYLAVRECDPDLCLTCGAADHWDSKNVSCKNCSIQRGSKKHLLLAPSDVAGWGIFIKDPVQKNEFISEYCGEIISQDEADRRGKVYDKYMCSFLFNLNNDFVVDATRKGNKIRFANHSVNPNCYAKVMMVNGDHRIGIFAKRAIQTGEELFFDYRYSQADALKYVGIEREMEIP
Sequence of EZH2 (O75530 whole entry partner, species assumed): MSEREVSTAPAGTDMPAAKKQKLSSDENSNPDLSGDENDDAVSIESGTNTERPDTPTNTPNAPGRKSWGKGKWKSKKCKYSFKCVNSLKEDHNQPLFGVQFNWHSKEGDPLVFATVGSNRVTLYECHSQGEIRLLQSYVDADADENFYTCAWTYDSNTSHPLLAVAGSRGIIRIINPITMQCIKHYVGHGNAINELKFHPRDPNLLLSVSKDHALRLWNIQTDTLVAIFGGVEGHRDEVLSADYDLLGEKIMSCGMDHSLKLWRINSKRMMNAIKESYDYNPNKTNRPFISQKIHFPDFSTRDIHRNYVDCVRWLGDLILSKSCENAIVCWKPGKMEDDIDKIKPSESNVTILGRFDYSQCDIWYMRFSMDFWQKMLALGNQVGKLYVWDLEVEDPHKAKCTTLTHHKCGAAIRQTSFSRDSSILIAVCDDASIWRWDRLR
Sequence of EZH2 (Q15022 whole entry partner, species assumed): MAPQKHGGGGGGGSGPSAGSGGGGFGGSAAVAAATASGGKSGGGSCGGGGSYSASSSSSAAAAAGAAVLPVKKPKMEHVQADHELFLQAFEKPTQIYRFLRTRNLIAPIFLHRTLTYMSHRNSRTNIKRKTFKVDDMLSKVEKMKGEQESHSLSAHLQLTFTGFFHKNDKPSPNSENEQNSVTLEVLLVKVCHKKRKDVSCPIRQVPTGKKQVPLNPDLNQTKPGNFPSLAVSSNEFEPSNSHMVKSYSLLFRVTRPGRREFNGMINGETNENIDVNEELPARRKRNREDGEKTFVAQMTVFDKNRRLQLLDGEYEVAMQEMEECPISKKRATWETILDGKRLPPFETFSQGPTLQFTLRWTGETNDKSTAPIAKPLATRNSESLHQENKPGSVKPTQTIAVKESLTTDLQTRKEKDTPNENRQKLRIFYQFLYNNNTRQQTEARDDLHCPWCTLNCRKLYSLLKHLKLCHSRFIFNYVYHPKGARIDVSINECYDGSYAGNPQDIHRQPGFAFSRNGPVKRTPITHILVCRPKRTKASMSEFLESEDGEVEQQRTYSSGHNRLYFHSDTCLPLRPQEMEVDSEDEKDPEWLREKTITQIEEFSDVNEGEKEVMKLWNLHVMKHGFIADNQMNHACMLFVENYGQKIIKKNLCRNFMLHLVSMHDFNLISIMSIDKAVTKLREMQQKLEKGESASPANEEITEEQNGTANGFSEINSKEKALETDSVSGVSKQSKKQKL
Sequence of EZH1 (Q92800 whole entry, species assumed): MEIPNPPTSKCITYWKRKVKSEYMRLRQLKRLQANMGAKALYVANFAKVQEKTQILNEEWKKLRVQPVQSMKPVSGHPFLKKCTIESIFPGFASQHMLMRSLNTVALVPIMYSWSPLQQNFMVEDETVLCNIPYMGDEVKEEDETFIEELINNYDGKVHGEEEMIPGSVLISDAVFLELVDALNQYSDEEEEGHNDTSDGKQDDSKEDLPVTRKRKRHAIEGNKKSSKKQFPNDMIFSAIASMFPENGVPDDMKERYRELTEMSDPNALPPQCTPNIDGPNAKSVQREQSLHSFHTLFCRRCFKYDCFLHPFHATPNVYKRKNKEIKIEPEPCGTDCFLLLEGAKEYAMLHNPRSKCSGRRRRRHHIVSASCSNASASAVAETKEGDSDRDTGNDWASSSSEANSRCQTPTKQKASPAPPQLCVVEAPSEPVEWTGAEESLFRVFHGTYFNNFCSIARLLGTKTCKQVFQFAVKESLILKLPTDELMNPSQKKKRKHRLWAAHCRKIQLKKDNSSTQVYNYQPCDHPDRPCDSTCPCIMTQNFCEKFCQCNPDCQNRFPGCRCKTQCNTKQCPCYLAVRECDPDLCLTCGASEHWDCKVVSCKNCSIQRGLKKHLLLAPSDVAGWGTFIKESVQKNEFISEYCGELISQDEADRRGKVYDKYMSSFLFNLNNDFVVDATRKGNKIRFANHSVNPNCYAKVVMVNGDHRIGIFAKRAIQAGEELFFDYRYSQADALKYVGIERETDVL
Sequence of EZH1 (O75530 whole entry partner, species assumed): as the sequence (O75530 whole entry partner, species assumed) above
Sequence of EZH1 (Q15022 whole entry partner, species assumed): as the sequence (Q15022 whole entry partner, species assumed) above

By inhibition is commonly meant the percentage by which the read-out fell short of the control. Take `CSc1cc(C)[nH]c(=O)c1CNC(=O)c1cc(-c2ccc(N3C[C@@H](C)O[C@@H](C)C3)nc2)c2c(c1C)OC(C)(C1CCN(CCCC(F)(F)F)CC1)O2` (single isomer, unassigned) [Compound 57]: in the assay with G401 cells, the “% inhibition rate G401” value is “+++ (+++: ≥70%)”. Besides, in the assay with Lovo cells (1 µM), the “% inhibition rate LoVo” value is reported as “+++ (+++: ≥70%)”. The inhibition at 0.005 µM was found to be 58.9% on EZH1 and 96% at EZH2. Moreover, the inhibition at 0.01 µM was 76.2% against EZH1 and 99.4% against EZH2. In addition, the inhibition at 1 µM in the assay with SW-13 cells, in the assay on MKN-45 cells, in the assay with MIA-PaCa-2 cells and in the assay with NCI-H1299 cells was 30 to 70% in each case.

Consider `CSc1cc(C)[nH]c(=O)c1CNC(=O)c1cc(-c2cnc(N3CCOCC3)nc2)c2c(c1C)OC(C)(C1CCN(CC(F)(F)F)CC1)O2` (single isomer, unassigned) [Compound 69, 2,4-dimethyl-N-((6-methyl-4-(methylthio)-2-oxo-1,2-dihydropyridin-3-yl)methyl)-7-(2-morpholinopyrimidine-5-yl)-2-(1-(2,2,2-trifluoro)piperidin-4-yl)benzo [d][1,3]dioxole-5-carboxamide], for which the “% inhibition rate G401” value in the assay on G401 cells is given as “+++ (+++: ≥70%)”. Moreover, the inhibition at 1 µM is no less than 70% with Lovo cells; 30 to 70% in the assay on SW-13 cells; 30 to 70% with MKN-45 cells; no more than 30% in the assay on MIA-PaCa-2 cells; no more than 30% in the assay with NCI-H1299 cells. Besides, the inhibition at 0.005 µM against EZH1 stood at 71.9%; against EZH2, 98.2%. Further, the inhibition at 0.01 µM against EZH1 was determined as 87.9%; on EZH2, 99.6%.

In the case of `CSc1cc(C)[nH]c(=O)c1CNC(=O)c1cc(-c2cnc(N3CCC(F)(F)CC3)nc2)c2c(c1C)OC(C)([C@H]1CC[C@H](N(C)C)CC1)O2` (relative stereo) [Compound 8, 7-(2-(4,4-difluoropiperidin-1-yl)pyrimidin-5-yl)-2-(trans-4-(dimethylamino)cyclohexyl)-2,4-dimethyl-N-((6-methyl-4-(methylthio)-2-oxo-1,2-dihydropyridin-3-yl)methyl)benzo[d][1,3]dioxole-5-carboxamide], the inhibition at 1 µM in the assay on G401 cells is 30 to 70%; in the assay on Lovo cells, 30 to 70%; with SW-13 cells, 30 to 70%; in the assay on MKN-45 cells, 30 to 70%; in the assay on MIA-PaCa-2 cells, no more than 30%; in the assay on NCI-H1299 cells it was no more than 30%. Further, the inhibition at 0.005 µM against EZH1 amounted to 85.6%; against EZH2, 96.1%.

Take `CSc1cc(C)[nH]c(=O)c1CNC(=O)c1cc(-c2ccc(N3C[C@@H](C)O[C@@H](C)C3)nc2)c2c(c1C)OC(C)([C@H]1CC[C@H](N)CC1)O2` (stereo partly drawn) [Compound 100, 2-(trans-4-aminocyclohexyl)-7-(6-((2S,6R)-2,6-dimethylmorpholino)pyridin-3-yl)-2,4-dimethyl-N-((6-methyl-4-(methylthio)-2-oxo-1,2-dihydropyridin-3-yl)methyl)benzo[d][1,3]dioxole-5-carboxamide hydrochloride]: the inhibition at 1 µM in the assay on G401 cells was no less than 70%; in the assay on Lovo cells, no more than 30%; with SW-13 cells, 30 to 70%; in the assay on MKN-45 cells, 30 to 70%; in the assay on MIA-PaCa-2 cells, no more than 30%; in the assay with NCI-H1299 cells, no more than 30%. For the same compound, the inhibition at 0.005 µM was found to be 30% against EZH1 and 96.3% against EZH2. The figures for the inhibition at 0.01 µM against EZH1 and against EZH2 were 68.1% and 100%, respectively.

Turning to `CSc1cc(C)[nH]c(=O)c1CNC(=O)c1cc(-c2ccc(N3CCSCC3)nc2)c2c(c1C)OC(C)(C1CCN(CC(F)(F)F)CC1)O2` (stereo not drawn) [Compound 34, 2,4-dimethyl-N-((6-methyl-4-(methylthio)-2-oxo-1,2-dihydropyridin-3-yl)methyl)-7-(6-thiomorpholinopyridin-3-yl)-2-(1-(2,2,2-trifluoroethyl)piperidin-4-yl)benzo[d][1,3]dioxole-5-carboxamide], the inhibition at 1 µM in the assay on G401 cells is 30 to 70%; in the assay with Lovo cells, no less than 70%; in the assay on SW-13 cells, no more than 30%; with MKN-45 cells, no more than 30%; in the assay on MIA-PaCa-2 cells it was no more than 30%; in the assay on NCI-H1299 cells it was no more than 30%. Besides, the inhibition at 0.005 µM on EZH1 was 24.9%; against EZH2 it was 41.1%.

Regarding `COCCN(C)[C@H]1CC[C@H](C2(C)Oc3c(-c4ccc(N5C[C@@H](C)O[C@@H](C)C5)nc4)cc(C(=O)NCc4c(SC)cc(C)[nH]c4=O)c(C)c3O2)CC1` (stereo partly drawn) [Compound 24, 7-(6-((2S,6R)-2,6-dimethylmorpholino)pyridin-3-yl)-2-(trans-4-((2-methoxyethyl)(methyl)amino)cyclohexyl)-2,4-dimethyl-N-((6-methyl-4-(methylthio)-2-oxo-1,2-dihydropyridin-3-yl)methyl)benzo[d][1,3]dioxole-5-carboxamide], the inhibition at 1 µM in the assay with G401 cells is 30 to 70%; in the assay with Lovo cells, no less than 70%; with SW-13 cells it was 30 to 70%; in the assay with MKN-45 cells it was no more than 30%; with MIA-PaCa-2 cells, no more than 30%; with NCI-H1299 cells it was no more than 30%. The inhibition at 0.005 µM worked out at 35.1% on EZH1 and 98.6% on EZH2.

On to `CSc1cc(C)[nH]c(=O)c1CNC(=O)c1cc(-c2ccc(N3C[C@@H](C)O[C@@H](C)C3)nc2)c2c(c1C)OC(C)([C@H]1CC[C@H](N3CC(O)C3)CC1)O2` (stereo partly drawn) [Compound 101, 7-(6-((2S,6R)-2,6-dimethylmorpholino)pyridin-3-yl)-2-(trans-4-(3-hydroxyazetidin-1-yl)cyclohexyl)-2,4-dimethyl-N-((6-methyl-4-(methylthio)-2-oxo-1,2-dihydropyridin-3-yl)methyl)benzo[d][1,3]dioxole-5-carboxamide], for which the inhibition at 1 µM with G401 cells is no less than 70%; with Lovo cells it was 30 to 70%; in the assay on SW-13 cells, 30 to 70%; with MKN-45 cells, no more than 30%; with MIA-PaCa-2 cells, no more than 30%; in the assay with NCI-H1299 cells, no more than 30%. Further, the results for the inhibition at 0.005 µM at EZH1 and at EZH2 were 38.8% and 98.7%, respectively. In addition, the inhibition at 0.01 µM against EZH1 was found to be 78.1%; against EZH2, 100%.

Turning to `CSc1cc(C)[nH]c(=O)c1CNC(=O)c1cc(-c2cnc(N3CCCCC3)nc2)c2c(c1C)OC(C)([C@H]1CC[C@H](N(C)CC(F)(F)F)CC1)O2` (relative stereo) [Compound 21, 2,4-dimethyl-2-(trans-4-(methyl(2,2,2-trifluoroethyl)amino)cyclohexyl)-N-((6-methyl-4-(methylthio)-2-oxo-1,2-dihydropyridin-3-yl)methyl)-7-(2-(piperidin-1-yl)pyrimidin-5-yl)benzo[d][1,3]dioxole-5-carboxamide], the inhibition at 1 µM with G401 cells is no more than 30%; with Lovo cells, no less than 70%; in the assay with SW-13 cells, no more than 30%; with MKN-45 cells, no more than 30%; in the assay with MIA-PaCa-2 cells, no more than 30%; in the assay with NCI-H1299 cells, no more than 30%. Also, the inhibition at 0.005 µM against EZH1 is 20.6%; against EZH2, 11.3%.
